Assay results published in patent US10640457B2, “Histone acetyltransferase activators and uses thereof” (The Trustees of Columbia University in the City of New York, priority 2009, dated 2020).
Entries after “also recorded” stand apart in the source; their conditions may differ.

Experiments:
Aβ-infused mice = assay: Contextual and cued fear conditioning in Aβ42-infused mice (TSA); format: in vivo
Description: HDAC inhibition rescues the defect in associative memory by Aβ elevation. The APP and PS1 transgenes could affect neuronal function through different mechanisms [B23, B24] (each herein incorporated by reference in its entirety), including direct effects by Aβ. Full-length APP and its cleavage products could differently impact H4 acetylation. To separate Aβ effects from other effects of APP and PS1 overexpression, we next determined whether Aβ per se is responsible for the deficit in H4 acetylation observed in our studies on transgenic mice. […] (each herein incorporated by reference in its entirety), we applied a preparation containing oligomeric Aβ42 (200 nM in a volume of […], slowly over 1 min) into dorsal hippocampi (FIG. 24A-B), 15 min prior to training for fear conditioning, with injection of TSA or vehicle (2 mg/kg body weight, 2 hrs prior to training, i.p.). Infusion occurred 5-7 days after implanting cannulas onto dorsal hippocampi. We found no difference in the freezing behavior among the 4 groups of mice during the training phase of the fear conditioning (F3,41=0.04188, p=0.9884, n=8-14/group; FIG. 24C). Twenty-four hours later, freezing behavior was decreased in Aβ-infused mice compared to vehicle-infused mice in the analysis of the contextual learning (F3,41=3.619, p=0.0209, n=8-14/group; FIG. 24C). Freezing in Aβ-infused mice was about 25% that of vehicle-infused mice [Aβ-infused mice: 8.580±2.119% vs. vehicle-infused mice: 31.46±5.373% n=12 and 11 males, respectively; t=3.147, p=0.0049; FIG. 24C].

YAC128 mice = assay: Accelerating rotarod in YAC128 Huntington's Disease mice; format: in vivo; settings: YF2 5 mg/kg from age 2 months
Description: Animals: Mouse models of Huntington's Disease (YAC128) versus wildtype (WT) littermates.
Accelerating Rotarod: This assay is a common assay used to monitor motor coordination in mouse models of Huntington's disease (HD). After a training period to acclimatize the mice to the apparatus, mice are placed on a rod rotating at 5 rpm. Over the test period of 300 sec, the rod increases its rotational speed from 5 rpm to 40 rpm. The time at which the mouse falls off of the rod is recorded. Each mouse is subject to 3 runs per day (shown as a per day average) across 3 days (d1, d2, d3). Typically 8 to 12 mice per group are used in this assay. Both male and female data are shown for age 4 months (FIG. 83A) and 6 months (FIG. 83B).

Aβ42-infused mice = assay: Contextual and cued fear conditioning in Aβ-infused mice (YF2); format: in vivo
Description: Contextual and cued fear conditioning was performed to assess whether the compound is capable of ameliorating amyloid-beta (Aβ) induced memory defect. Aβ is a peptide which is elevated in Alzheimer's disease. The hippocampus plays a key role in contextual memory and in Alzheimer's Disease. This type of cognitive test is much faster than other behavioral tasks that require multiple days of training and testing [Q1, Q2]; each herein incorporated by reference in its entirety. The conditioning chamber was in a sound-attenuating box. A clear Plexiglas window allowed the experimenter to film the mouse performance with a camera placed on a tripod and connected to the Freezeframe software (MED Ass. Inc.). To provide background white noise (72 dB), a single computer fan was installed in one of the sides of the sound-attenuating chamber. […] The floor was removable, and after each experimental subject, we cleaned it with 75% ethanol and then with water. Only one animal at a time was present in the experimentation room.
For the cued and contextual conditioning experiments, mice were placed in the conditioning chamber for 2 min before the onset of a discrete tone (CS) (a sound that lasted 30 sec at 2800 Hz and 85 dB). In the last 2 sec of the CS, mice were given a foot shock (US) of 0.8 mA for 2 sec through the bars of the floor. […] Freezing behavior, defined as the absence of all movement except for that necessitated by breathing, was scored using the Freezeview software.
To evaluate contextual fear learning, freezing was measured for 5 min (consecutively) in the chamber in which the mice was trained 24 hr after training. To evaluate cued fear learning, following contextual testing, the mice were placed in a novel context (triangular cage with smooth flat floor) for 2 min (pre-CS test), after which they were exposed to the CS for 3 min (CS test), and freezing was measured. Sensory perception of the shock was determined through threshold assessment. […] Initially, a […] shock was delivered for 1 sec, and the animal behavior was evaluated for flinching, jumping, and vocalization. […]

[1] = Kinetics of YF2 in tail blood; format: in vivo, mice; settings: 20 mg/kg i.p.
Description: To this purpose, we administered the compound (20 mg/kg. i.p.) and then sampled blood from tails at different time points.

## CC(/C=C/C(=O)NO)=C\[C@@H](C)C(=O)c1ccc(N(C)C)cc1 [TSA, trichostatin A]
Aβ-infused mice; Aβ-infused mice injected with TSA
  freezing time relative to Aβ-infused mice: about 300%
Aβ-infused mice; TSA i.p. 2 hrs before training
  deficit in freezing responses in Aβ-infused mice: ameliorates
Aβ-infused mice; TSA+Aβ treated mice, TSA 2 mg/kg i.p. 2 hrs prior to training, Aβ42 200 nM
  freezing, contextual fear conditioning 24 hrs after training: 26.17±4.747%
Aβ-infused mice; TSA-treated, vehicle-infused mice
  freezing, contextual fear conditioning 24 hrs after training: 27.01±7.246%
Aβ-infused mice; pre-CS and CS
  cued fear conditioning, freezing among the 4 groups: did not find a difference

## CCOc1cccc(OCCN(C)C)c1C(=O)Nc1ccc(Cl)c(C(F)(F)F)c1 [YF2]
YAC128 mice; female mice, 6 months of age
  rotarod performance deficit of YAC128 vs WT mice: significance is lost
YAC128 mice; male mice, 4 months of age
  rotarod performance deficit of YAC128 vs WT mice: significance is lost
Aβ42-infused mice; 20 mg/kg i.p., no Aβ
  contextual memory, compound alone: did not affect
Aβ42-infused mice; Aβ42-infused mice, i.p. 20 mg/kg 2 hrs or 5 mg/kg 30 min before the electric shock
  contextual fear memory deficit (freezing time): ameliorated; also recorded: dramatically increasing
Aβ42-infused mice; different groups (vehicle, YF2, Aβ, YF2 plus Aβ)
  cued memory: not changed
[1]
  time of peak in blood post-injection: around 30 minutes
